This note sets out measurements from patent publication US20210380606A1, “5-AZAINDAZOLE DERIVATIVES AS ADENOSINE RECEPTOR ANTAGONISTS” (Merck Patent GmbH, priority 2018, published 2021).

One assay deals with T1, human A2A receptors (Homo sapiens, UniProt P29274).
T1 construct: expressed in transfected cells; host or cells: HEK293
Nature of the assay: Functional human A2A receptor activity, recombinant HEK293 cells, cAMP (HTRF). In kind it is cell-based. Conditions: read-out: A2A (Category). In a few lines:
(§1)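 Receptor function was assessed by measuring cAMP, the second messenger for adenosine receptors. Cells were incubated for 15 min, after which HTRF reagents were added and cellular cAMP levels were read.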
Background: TR-FRET usually uses a lanthanide donor and a delayed reading to cut background.

In the next assay the target is T2, human A2B receptors (Homo sapiens, UniProt P29275).
T2 construct: expressed in transfected cells; host or cells: HEK293
T2 sequence (P29275 1-332): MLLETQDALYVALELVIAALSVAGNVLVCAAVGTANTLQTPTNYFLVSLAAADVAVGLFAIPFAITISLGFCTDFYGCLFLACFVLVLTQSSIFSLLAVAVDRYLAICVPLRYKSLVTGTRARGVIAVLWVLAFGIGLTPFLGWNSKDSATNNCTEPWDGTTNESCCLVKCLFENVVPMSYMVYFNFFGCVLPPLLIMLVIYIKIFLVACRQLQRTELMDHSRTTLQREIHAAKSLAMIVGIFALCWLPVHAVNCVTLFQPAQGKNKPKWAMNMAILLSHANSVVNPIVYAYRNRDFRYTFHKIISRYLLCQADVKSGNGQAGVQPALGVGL
In words: Functional human A2B receptor activity, recombinant HEK293 cells, cAMP (HTRF). In kind it is cell-based. The note with it: read-out: A2B (Category). In a few lines: as §1

Where two headings read alike, the source gives them in different places.

T1 sequence (P29274 whole entry): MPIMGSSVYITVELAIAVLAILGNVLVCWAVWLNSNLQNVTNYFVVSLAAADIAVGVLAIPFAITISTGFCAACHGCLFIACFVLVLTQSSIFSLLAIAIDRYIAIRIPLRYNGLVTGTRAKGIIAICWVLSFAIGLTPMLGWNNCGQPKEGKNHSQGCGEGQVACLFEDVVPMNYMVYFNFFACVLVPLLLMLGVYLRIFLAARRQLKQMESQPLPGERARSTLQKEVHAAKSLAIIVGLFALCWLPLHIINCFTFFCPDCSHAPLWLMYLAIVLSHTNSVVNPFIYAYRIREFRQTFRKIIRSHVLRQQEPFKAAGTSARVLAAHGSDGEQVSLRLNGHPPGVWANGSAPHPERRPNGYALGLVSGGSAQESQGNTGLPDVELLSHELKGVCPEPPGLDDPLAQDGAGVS

For the compound `CC1(CO)CCN(C(=O)c2cc3c(cn2)c(-c2cnc4c(F)cc(F)cn24)nn3CC(F)(F)F)CC1` [Compound 176, [3-(6,8-Difluoro-imidazo[1,2-a]pyridin-3-yl)-1-(2,2,2-trifluoro-ethyl)-1H-pyrazolo[4,3-c]pyridin-6-yl]-(4-hydroxymethyl-4-methyl-piperidin-1-yl)-methanone], the values for the IC50 on human A2A receptors and at human A2B receptors were below 100 nM and below 1000 nM, respectively.
The like results for `CC1(C)CC(O)CCN1C(=O)c1cc2c(cn1)c(-c1coc3ccccc13)nn2CC(F)(F)F` (stereo not shown) [Compound 219, [3-Benzofuran-3-yl-1-(2,2,2-trifluoro-ethyl)-1H-pyrazolo[4,3-c]pyridin-6-yl]-(4-hydroxy-2,2-dimethyl-piperidin-1-yl)-methanone] were, in that order, below 100 nM and below 1000 nM.
With `O=C(c1cc2c(cn1)c(-c1cnc3cnccn13)nn2CC(F)(F)F)N1CCCCCC1` [Compound 56, Azepan-1-yl-[3-imidazo[1,2-a]pyrazin-3-yl-1-(2,2,2-trifluoro-ethyl)-1H-pyrazolo[4,3-c]pyridin-6-yl]-methanone], the IC50 is below 100 nM at human A2A receptors and below 1000 nM on human A2B receptors.
The like results for `[2H]C1([2H])COCCN(C(=O)c2cc3c(cn2)c(-c2c[nH]c4ccccc24)nn3CC(F)(F)F)C1` [Example 242, (6,6-dideuterio-1,4-oxazepan-4-yl)-[3-(1H-indol-3-yl)-1-(2,2,2-trifluoroethyl)pyrazolo[4,3-c]pyridin-6-yl]methanone] were, in that order, below 100 nM and below 1000 nM.
The like results for `CC(C)(C)OC(=O)NC1COCCN(C(=O)c2cc3c(cn2)c(-c2cnc4c(F)cc(F)cn24)nn3CC(F)(F)F)C1` (stereo not shown) [Compound 204, {4-[3-(6,8-Difluoro-imidazo[1,2-a]pyridin-3-yl)-1-(2,2,2-trifluoro-ethyl)-1H-pyrazolo[4,3-c]pyridine-6-carbonyl]-1,4-oxazepan-6-yl}-carbamic Acid Tert-Butyl Ester] were, in that order, below 100 nM and below 1000 nM.
The like results for `O=C(c1cc2c(cn1)c(-c1cnc3ccc(F)cn13)nn2CC(F)F)N1CCCCCC1` [Compound 3, Azepan-1-yl-[1-(2,2-difluoro-ethyl)-3-(6-fluoro-imidazo[1,2-a]pyridin-3-yl)-1H-pyrazolo[4,3-c]pyridin-6-yl]-methanone] were, in that order, below 100 nM and below 100 nM.
`O=C(c1cc2c(cn1)c(-c1cnc3ccc(F)cn13)nn2CC(F)(F)F)N1CCC(O)CC1` [Compound 131, [3-(6-Fluoro-imidazo[1,2-a]pyridin-3-yl)-1-(2,2,2-trifluoro-ethyl)-1H-pyrazolo[4,3-c]pyridin-6-yl]-(4-hydroxy-piperidin-1-yl)-methanone]: the IC50 at human A2A receptors was below 100 nM; on human A2B receptors, below 1000 nM.
The like results for `CS(=O)(=O)Cn1nc(-c2cnn3ccccc23)c2cnc(C(=O)N3CC4CCC(C3)O4)cc21` [Compound 108, (1-Methanesulfonylmethyl-3-pyrazolo[1,5-a]pyridine-3-yl-1H-pyrazolo[4,3-c]pyridine-6-yl)-(8-oxa-3-aza-bicyclo[3.2.1]oct-3-yl)-methanone] were, in that order, below 100 nM and below 1000 nM.
On to `CC1(C)CC(O)CCN1C(=O)c1cc2c(cn1)c(-c1cnc3c(F)cc(F)cn13)nn2CC(F)(F)F` (stereo not shown) [Compound 142, [3-(6,8-Difluoro-imidazo[1,2-a]pyridin-3-yl)-1-(2,2,2-trifluoro-ethyl)-1H-pyrazolo[4,3-c]pyridin-6-yl]-(4-hydroxy-2,2-dimethyl-piperidin-1-yl)-methanone], for which the IC50 on human A2A receptors is below 100 nM; on human A2B receptors, below 1000 nM.
The like results for `C[C@@]1(O)C[C@H]2C[C@@H]1CN2C(=O)c1cc2c(cn1)c(-c1coc3ccccc13)nn2CS(C)(=O)=O` (relative stereo) [Compound 31, (3-Benzofuran-3-yl-1-methanesulfonylmethyl-1H-pyrazolo[4,3-c]pyridin-6-yl)-(5-endo-hydroxy-5-exo-methyl-2-aza-bicyclo[2.2.1]hept-2-yl)-methanone] were, in that order, below 100 nM and below 1000 nM.
The like results for `O=C(c1cc2c(cn1)c(-c1coc3ccc(F)cc13)nn2CC(F)(F)F)N1CC2CCC(C1)O2` [Compound 127, [3-(5-fluorobenzofuran-3-yl)-1-(2,2,2-trifluoroethyl)pyrazolo[4,3-c]pyridin-6-yl]-(8-oxa-3-azabicyclo[3.2.1]octan-3-yl)methanone] were, in that order, below 100 nM and below 100 nM.
As for `NC(=O)c1ccc2occ(-c3nn(CC(F)(F)F)c4cc(C(=O)N5CCCOCC5)ncc34)c2c1` [Compound 237, 3-[6-(1,4-oxazepane-4-carbonyl)-1-(2,2,2-trifluoroethyl)pyrazolo[4,3-c]pyridin-3-yl]benzofuran-5-carboxamide], the IC50 on human A2A receptors is below 100 nM; on human A2B receptors, below 1000 nM.
The like results for `CCN(C(=O)c1cc2c(cn1)c(-c1coc3ccccc13)nn2CC(F)(F)F)C1CCCCC1` [Compound 235, 3-(benzofuran-3-yl)-N-cyclohexyl-N-ethyl-1-(2,2,2-trifluoroethyl)pyrazolo[4,3-c]pyridine-6-carboxamide] were, in that order, below 100 nM and below 1000 nM.
The like results for `NC(=O)c1ccc2ncc(-c3nn(CC(F)(F)F)c4cc(C(=O)N5CCCCCC5)ncc34)n2c1` [Compound 46, 3-[6-(Azepane-1-carbonyl)-1-(2,2,2-trifluoro-ethyl)-1H-pyrazolo[4,3-c]-pyridin-3-yl]-imidazo[1,2-a]pyridine-6-carboxylic acid amide] were, in that order, below 100 nM and below 100 nM.
Consider `CS(=O)(=O)Cn1nc(-c2coc3ccccc23)c2cnc(C(=O)N3CCCC(O)CC3)cc21` (stereo not shown) [Compound 40, (3-Benzofuran-3-yl-1-methanesulfonylmethyl-1H-pyrazolo[4,3-c]pyridin-6-yl)-(4-hydroxyazepan-1-yl)-methanone], for which the IC50 at human A2A receptors and at human A2B receptors was below 100 nM each time.
`O=C(c1cc2c(cn1)c(-c1cnc3c(F)cc(F)cn13)nn2CC(F)(F)F)N1CCCCCC1` [Compound 60, Azepan-1-yl-[3-(6,8-difluoro-imidazo[1,2-a]pyridin-3-yl)-1-(2,2,2-trifluoro-ethyl)-1H-pyrazolo[4,3-c]pyridin-6-yl]-methanone]: the IC50 at human A2A receptors and at human A2B receptors was below 100 nM each time.
Consider `O=C(c1cc2c(cn1)c(-c1cnc3ccc(F)cn13)nn2CC(F)(F)F)N1CC2CCC(C1)O2` [Compound 82, [3-(6-Fluoro-imidazo[1,2-a]pyridin-3-yl)-1-(2,2,2-trifluoro-ethyl)-1H-pyrazolo[4,3-c]pyridin-6-yl]-(8-oxa-3-aza-bicyclo[3.2.1]oct-3-yl)-methanone], for which the IC50 at human A2A receptors was below 100 nM; on human A2B receptors, below 1000 nM.
The like results for `O=C(c1cc2c(cn1)c(-c1cnc3c(F)cc(F)cn13)nn2CC(F)(F)F)N1CCOCC(F)(F)C1` [Compound 185, [3-(6,8-Difluoro-imidazo[1,2-a]pyridin-3-yl)-1-(2,2,2-trifluoro-ethyl)-1H-pyrazolo[4,3-c]pyridin-6-yl]-(6,6-difluoro-1,4-oxazepan-4-yl)-methanone] were, in that order, below 100 nM and below 1000 nM.
The like results for `O=C(c1cc2c(cn1)c(-c1coc3ccccc13)nn2CC(F)(F)F)N1CCC(F)(F)CC1` [Compound 225, [3-(benzofuran-3-yl)-1-(2,2,2-trifluoroethyl)pyrazolo[4,3-c]pyridin-6-yl]-(4,4-difluoro-1-piperidyl)methanone] were, in that order, below 100 nM and below 1000 nM.
The like results for `O=C(c1cc2c(cn1)c(-c1cnn3ccccc13)nn2CC(F)(F)F)N1[C@@H]2CC[C@H]1C[C@@H](O)C2` [Compound 113, (3-endo-hydroxy-8-azabicyclo[3.2.1]octan-8-yl)-[3-pyrazolo[1,5-a]pyridin-3-yl-1-(2,2,2-trifluoroethyl)pyrazolo[4,3-c]pyridin-6-yl]methanone] were, in that order, below 100 nM and below 100 nM.
For `O=C(c1cc2c(cn1)c(-c1cnn3ccncc13)nn2CC(F)(F)F)N1CCCCCC1` [Compound 248, Azepan-1-yl-[3-pyrazolo[1,5-a]pyrazin-3-yl-1-(2,2,2-trifluoro-ethyl)-1H-pyrazolo[4,3-c]pyridin-6-yl]-methanone], the IC50 at human A2A receptors is below 100 nM; at human A2B receptors it was below 1000 nM.
The like results for `O=C(c1cc2c(cn1)c(-c1coc3ccccc13)nn2CC(F)(F)F)N1[C@@H]2CC[C@H]1C[C@@H](O)C2` [Compound 209, [3-Benzofuran-3-yl-1-(2,2,2-trifluoro-ethyl)-1H-pyrazolo[4,3-c]pyridin-6-yl]-(3-endo-hydroxy-8-aza-bicyclo[3.2.1]oct-8-yl)-methanone] were, in that order, below 100 nM and below 100 nM.
`O=C(c1cc2c(cn1)c(-c1cnc3c(F)cc(F)cn13)nn2CC(F)(F)F)N1CC2COCC2C1` (stereo not shown) [Compound 154, [3-(6,8-Difluoro-imidazo[1,2-a]pyridin-3-yl)-1-(2,2,2-trifluoro-ethyl)-1H-pyrazolo[4,3-c]pyridin-6-yl]-(tetrahydro-furo[3,4-c]pyrrol-5-yl)-methanone]: the IC50 on human A2A receptors (recombinant HEK293 cells expressing human A2A receptor, agonist NECA, cAMP HTRF, 15 min incubation) was below 100 nM; at human A2B receptors (recombinant HEK293 cells expressing human A2B receptor, agonist NECA, cAMP HTRF, 15 min incubation), below 1000 nM.
